Laboratory results reported in patent publication US5108996A, “19-nor-3-keto steroids” (Roussel Uclaf, priority 1989, dated 1992).

Experiments:
[1] = test system: lipid peroxidation (MDA formation) in rat liver microsomes; assay: MDA formation triggered non-enzymatically by ferrous sulfate in rat liver microsomes (antioxidant activity); type: biochemical, S-D rat; conditions: 15 min 37° C
Description: (§1) The antioxidant activity was tested in vitro by the test of formation of malondialdehyde (MDA) which measures lipid peroxidation triggered: either a) non-enzymatically by ferrous sulfate, in 1) brain homogenates, or 2) rat liver microsomes or b) enzymatically by NADPH and carbon tetrachloride in rat liver microsomes.
1.2-MDA formation was measured on liver microsomes of S-D rats (200 g)
prepared from the fraction sedimented at 100,000 G of a liver homogenate
in a sucrose buffer, of which the fraction remaining insoluble at 100,000
G in 100 mM sodium pyrophosphate buffer pH 7.4 was used and which was
homogenized in 100 mM sodium phosphate buffer pH 7.4 containing 20% of
glycerol and then stored at -80° C.
The microsomes were incubated for 15 minutes at 37° C. in 1 ml containing 35 mM Tris-HCl buffer/0.1M KCl pH 7.4, 1 mg of microsomal protein, 5 microliters of ethanol containing or not containing the test product and 250 microliters of ascorbate solution in the Tris buffer (0.5 mM final), after the addition of 250 microliters of ferrous sulfate prepared immediately before use in the Tris buffer ([…]). The reaction was stopped by adding 2 ml of a 1M solution of trichloroacetic acid in 0.25M hydrochloric acid containing 0.4% of thiobarbituric acid. The mixture was heated to 85° C. for 25 minutes, cooled and centrifuged for 15 minutes at 3500 rpm, and the OD of the supernatant fraction was then read at 535 nm. The reaction blanks in the absence of Fe^++ were performed at the same time and the percentage inhibition was calculated as above.

[2] = test system: lipid peroxidation (MDA formation) in rat liver microsomes; assay: MDA formation triggered enzymatically by NADPH and carbon tetrachloride in liver microsomes of phenobarbital-pretreated rats (antioxidant activity); type: biochemical; conditions: NADPH/CCl4
Description: as §1
2-MDA formation was measured on liver microsomes of rats pretreated with phenobarbital (80 mg/kg in 3 i.p. injections), prepared as described above. The microsomes were incubated for 15 minutes at 37° C. in 1 ml containing 0.1M pH 7.4 phosphate buffer, 1 mg of microsomal protein, 5 microliters of ethanol containing or not containing the test product and 5 microliters of carbon tetrachloride (5.5 mM final) after the addition of 50 microliters of NADPH solution in the phosphate buffer (1 mM final). The reaction was stopped and the assay was then performed under the conditions described above.

[3] = test system: lipid peroxidation (MDA formation) in brain homogenates; assay: MDA formation triggered non-enzymatically by ferrous sulfate in rat brain homogenates (antioxidant activity); type: biochemical, S-D rat; conditions: brain homogenate, 60 min 37° C
Description: as §1
1.1-MDA formation was measured on 10-fold diluted (V/V) homogenates of brains of S-D (200 g), prepared in Krebs buffer pH 7.4 by the conditions described in J. Biol. Chem. Vol., 262 (1987), p. 10438 to 10440. 1 ml of homogenate was incubated for 60 minutes at 37° C. in the presence of 25 microliters of ethanol or water or a mixture of the two, depending on the product, containing or not containing the test product, after the addition of 25 microliters of ferrous sulfate solution prepared immediately before use in water outgassed with argon ([…]). 0.25 ml of incubated mixture was withdrawn and 1.5 ml of 1% strength phosphoric acid, 0.25 ml of a solution containing 200 microliters of deferoxamine (Desferal®, Ciba Geigy) in water, 10 microliters of butylated hydroxytoluene (BHT) at a concentration of 8.7 mg/ml in ethanol and 0.5 ml of thiobarbituric acid (TBA) at a concentration of 0.6% in water were added. The mixture was heated to 100° C. for 45 minutes and cooled. 4 ml of n-butanol were added and the mixture was centrifuged for 15 minutes at 4000 rpm and the OD of the supernatant fraction was then read at 535 nm. The reaction blanks in the absence of Fe^++ were incubated under the same conditions. The percentage inhibition was calculated as follows: […]

[4] = test system: ferric nitrilotriacetate (NTA-Fe+++) intoxication in rats; assay: Detoxifying activity in vivo: mortality induced in rats by ferric nitrilotriacetate (NTA-Fe+++) intoxication; set-up: species or system Wistar male rat; conditions: 5 mg/kg i.p. 30 minutes before 15 mg/kg of poison (NTA-Fe+++, mg of iron/kg); none alive after 4 hours with poison alone
Description: The detoxifying activity after intoxication associated with lipid peroxidaton was tested for by measurement of the mortality induced in rats by ferric nitrilotriacetate (NTA-Fe^+++) intoxication. A solution of NTA-Fe^+++ complex was prepared immediately before use, suspended in sesame oil and injected intraperitoneally at doses of 5, 10 or 15 mg of iron/kg of body weight into non-fasted Wistar male rats weighing approximately 200 g. The survival rate of rats which received a prior injection of the test product at a dose of 5 mg/kg intraperitoneally, 30 minutes before the injection of 15 mg/kg of poison was determined. Whereas none of the animals treated with the poison alone survived after 4 hours, 20% of the animals pretreated with the product of Example 2 were still alive 15 days later.

[5] = test system: arachidonic acid-induced plantar oedema; assay: Arachidonic acid-induced plantar oedema (anti-inflammatory activity); type: in vivo, Sprague-Dawley male rat; conditions: for Change in volume of the foot 1 hour after AA (mean ± s.e.m.): controls 0.58 ± 0.03; for % inhibition: oedema, relative to control
Description: The anti-inflammatory activity was assessed in vivo by measurement of the anti-oedematous activity in the test of arachidonic acid-induced plantar oedema described by Di Martino et al. (Agents and Actions, 1987 21 3/4 303). The experimental animals were Sprague-Dawley strain SPF male rats weighing 150 to 170 g (Iffa Credo).
This test was performed on groups of 8 male rats weighing 130 to 150 g, fasted for 16 hours. Arachidonic acid was injected under the plantar aponeurosis of one hindfoot at a dose of 0.2 mg in a volume of 0.1 ml. The volume of the foot was measured using a water plethysmometer before and 1 hour after the injection of arachidonic acid. The difference between these two volumes represented the degree of inflammation. The animals were treated with the test products or the vehicle alone at the same time as the injection of arachidonic acid. The test products were administered orally in a volume of 4 ml/kg after being suspended in 0.5% strength methyl cellulose. All the experiments were carried out with dexamethasone administered orally at a dose of 0.5 mg/kg as reference product.
The results were expressed as a change in volume of the foot 1 hour after the injection of arachidonic acid (AA) in the absence or in the presence of the test product administered at different doses. Statistical interpretation of the results was performed according to Dunnett's test (*p<[…]) or according to the Mann-Whitney test (^o p<0.05-^oo p<0.01). For each dose administered orally, the percentage inhibition of the oedema by the test product was calculated relative to the control.

SMILES: CN(C)c1ccc([C@H]2C[C@@]3(C)[C@@H](CC[C@@]3(O)C#CCN3CCN(c4cc(N5CCCC5)nc(N5CCCC5)n4)CC3)[C@@H]3CCC4=CC(=O)CCC4=C32)cc1 [Example 1, 11β-[4-(dimethylamino)-phenyl]-17α-[3-{4-[2,6-bis(1-pyrrolidinyl)-4-pyrimidinyl]-1-piperazinyl}-1-propynyl]-Δ^4,9-estradiene-17β-ol-3-one]
- percentage of inhibition ([1]; 1 × 10^-5 M): 76 ± 0.8
- percentage of inhibition ([1]; 1 × 10^-6 M): 4 ± 0.6
- percentage of inhibition ([1]; 5 × 10^-6 M): 47
- percentage of inhibition ([2]; 1 × 10^-5 M): 72 ± 3
- percentage of inhibition ([2]; 1 × 10^-6 M): 14 ± 4
- percentage of inhibition ([2]; 5 × 10^-6 M): 58 ± 5
- percentage of inhibition ([3]; 1 × 10^-4 M): 42.6 ± 7.5
- percentage of inhibition ([3]; 1 × 10^-5 M): 9.9 ± 6.4
- percentage of inhibition ([3]; 5 × 10^-4 M): 47.5 ± 8.8

SMILES: CN(C)c1ccc([C@H]2C[C@@]3(C)[C@@H](CC[C@@]3(O)C#CCN3CCN(c4cc(N5CCCC5)nc(N5CCCC5)n4)CC3)[C@@H]3CCC4=CC(=O)CCC4=C32)cc1 [Example 2, 11β-[4-(dimethylamino)-phenyl]-17α-[3-{4-[2,6-bis(1-pyrrolidinyl)-4-pyrimidinyl]-1-piperazinyl}-1-propynyl]-Δ^4,9-estradien-17β-ol-3-one methane sulfonate]
- percentage of inhibition ([1]; 1 × 10^-5 M): 98.5
- percentage of inhibition ([1]; 1 × 10^-6 M): 48 ± 1
- percentage of inhibition ([1]; 5 × 10^-6 M): 91
- percentage of inhibition ([2]; 1 × 10^-5 M): 91 ± 3
- percentage of inhibition ([2]; 1 × 10^-6 M): 28 ± 3
- percentage of inhibition ([2]; 5 × 10^-6 M): 82 ± 3
- animals still alive 15 days later (survival rate) [4]: 20%
- percentage of inhibition ([3]; 1 × 10^-4 M): 59.6 ± 4.4
- percentage of inhibition ([3]; 1 × 10^-5 M): 16.0 ± 5.0
- percentage of inhibition ([3]; 5 × 10^-4 M): 60.9 ± 3.3

SMILES: CCN(CC)c1ccc(N2CCN(CC#C[C@]3(O)CC[C@H]4[C@@H]5CCC6=CC(=O)CCC6=C5[C@@H](c5ccc(N(C)C)cc5)C[C@@]43C)CC2)nc1N(CC)CC [Example 3, 11β-[4-(dimethylamino)-phenyl]-17α-[3-{4-[5,6-bis(diethylamino)-2-pyridyl]-1-piperazinyl}1-propynyl]-Δ^4,9-estradiene-17β-ol-3-one]
- percentage of inhibition ([1]; 1 × 10^-5 M): 99.9
- percentage of inhibition ([1]; 1 × 10^-6 M): 78.2 ± 0.9
- percentage of inhibition ([1]; 1 × 10^-7 M): 5.2 ± 1
- percentage of inhibition ([1]; 5 × 10^-6 M): 99.5
- percentage of inhibition ([2]; 1 × 10^-5 M): 97
- percentage of inhibition ([2]; 1 × 10^-6 M): 40 ± 1
- percentage of inhibition ([2]; 5 × 10^-6 M): 88 ± 2
- Change in volume of the foot 1 hour after AA (mean ± s.e.m.) ([5]; 1 mg/kg oral): 0.48 ± 0.05 cm^3
- Change in volume of the foot 1 hour after AA (mean ± s.e.m.) ([5]; 4 mg/kg oral): 0.43 ± 0.06 cm^3
- Change in volume of the foot 1 hour after AA (mean ± s.e.m.) ([5]; 20 mg/kg oral): 0.40 ± 0.04 cm^3
- anti-inflammatory activity ([5]; low doses, oral): significant anti-inflammatory activity
- % inhibition ([5]; 1 mg/kg oral): -17%
- % inhibition ([5]; 4 mg/kg oral): -27%
- % inhibition ([5]; 20 mg/kg oral): -31%
- percentage of inhibition ([3]; 1 × 10^-4 M): 49.2 ± 2.3
- percentage of inhibition ([3]; 1 × 10^-5 M): 32.6 ± 10.1
- percentage of inhibition ([3]; 5 × 10^-4 M): 59.1 ± 3.2

SMILES: CCN(CC)c1ccc(N(CC)CC)c(N2CCN(CC#C[C@]3(O)CC[C@H]4[C@@H]5CCC6=CC(=O)CCC6=C5[C@@H](c5ccc(N(C)C)cc5)C[C@@]43C)CC2)n1 [Example 4, 17α-[3-{4-[3,6-bis(diethylamino)-2-pyridyl]-1]-piperazinyl}-1-propynyl]-11β-[4-(dimethylamino)-phenyl-Δ^4,9-estadiene-17β-ol-3-one]
- percentage of inhibition ([1]; 1 × 10^-5 M): 99.5
- percentage of inhibition ([1]; 1 × 10^-6 M): 70 ± 2
- percentage of inhibition ([1]; 1 × 10^-7 M): 0 ± 2
- percentage of inhibition ([1]; 5 × 10^-6 M): 99.4
- percentage of inhibition ([2]; 1 × 10^-6 M): 48 ± 3
- percentage of inhibition ([2]; 5 × 10^-6 M): 85 ± 2
- percentage of inhibition ([3]; 1 × 10^-4 M): 58.9 ± 10.9
- percentage of inhibition ([3]; 1 × 10^-5 M): 48.6 ± 6.2
- percentage of inhibition ([3]; 5 × 10^-4 M): 71.8 ± 10.2
